Measured values: US20240208940A1, “SMALL-MOLECULE INHIBITORS FOR BETA-CATENIN/BCELL LYMPHOMA 9 PROTEIN-PROTEIN INTERACTION” (H. LEE MOFFITT CANCER CENTER AND RESEARCH INSTITUTE, INC., priority 2021, published 2024)
Structures can show the parent of a compound that is named as a salt.

Target: β-catenin/BCL9 PPI (Homo sapiens (Human), UniProt P35222)
Assay: AlphaScreen competitive inhibition assay of β-catenin/BCL9 PPI
Assay type: binding
Conditions: mean ± standard deviation (n = 3); for Ki: derived from IC50, read-out: Ki ± SD
Procedure: AlphaScreen Assays of β-Catenin and BCL9 Interaction. Experiments were performed in white opaque 384-well plates from PerkinElmer (Waltham, MA), and the samples were read on a Biotek Synergy 2 plate reader (Winooski, VT) with excitation at 680 nm and emission at 570 nm. The standard AlphaScreen protocol was used with a sensitivity setting of 200. All dilutions were made in 1× assay buffer containing 25 mM Hepes (pH 7.4), 100 mM NaCl, 0.01% Triton X-100 and 0.1% BSA to minimize nonspecific interactions. For the competitive inhibition assays of β-catenin/BCL9 PPI, the negative control (equivalent to 0% inhibition) refers to 5.0 nM biotinylated BCL9, 50 nM His6-tagged β-catenin, and 10 μg/mL donor and acceptor beads in a final volume of 25 μL assay buffer, but no tested inhibitor present. The positive control (equivalent to 100% inhibition) refers to 5.0 nM biotinylated BCL9 and 10 μg/mL donor and acceptor beads in a final volume of 25 μL assay buffer.
For the β-catenin/BCL9 assay, 5 nM biotinylated BCL9 and 50 nM His6-tagged β-catenin were incubated in assay buffer for 30 min. Different concentrations of the tested inhibitor were added and incubated in 20 μL assay buffer for another 1 h. All of the assay plates were covered and gently mixed on an orbital shaker. The donor and acceptor beads were then added to the plates to a final concentration of 10 μg/mL in 25 μL assay buffer. The mixture was incubated for 1 h before detection. The IC50 value was determined by nonlinear least-square analysis of GraphPad Prism 8.0. The Ki values were derived from the IC50 values using a method reported by Wang and coworkers.^65 The equation used is Ki=[I]50/([L]50/Kd+[P]0/Kd+1) (Where [I]50 denotes the concentration of the free inhibitor at 50% inhibition, [L]50 is the concentration of the free labeled ligand at 50% inhibition, [P]0 is the concentration of the free protein at 0% inhibition, and Kd is the dissociation constant of the protein-ligand complex). All of the experiments were performed in triplicate and carried out in the presence of 1% DMSO for small-molecule inhibitors. Each compound was assayed at least by three independent experiments. The results were expressed as mean±standard deviation.

β-catenin/BCL9 PPI, sequence (P35222 whole entry): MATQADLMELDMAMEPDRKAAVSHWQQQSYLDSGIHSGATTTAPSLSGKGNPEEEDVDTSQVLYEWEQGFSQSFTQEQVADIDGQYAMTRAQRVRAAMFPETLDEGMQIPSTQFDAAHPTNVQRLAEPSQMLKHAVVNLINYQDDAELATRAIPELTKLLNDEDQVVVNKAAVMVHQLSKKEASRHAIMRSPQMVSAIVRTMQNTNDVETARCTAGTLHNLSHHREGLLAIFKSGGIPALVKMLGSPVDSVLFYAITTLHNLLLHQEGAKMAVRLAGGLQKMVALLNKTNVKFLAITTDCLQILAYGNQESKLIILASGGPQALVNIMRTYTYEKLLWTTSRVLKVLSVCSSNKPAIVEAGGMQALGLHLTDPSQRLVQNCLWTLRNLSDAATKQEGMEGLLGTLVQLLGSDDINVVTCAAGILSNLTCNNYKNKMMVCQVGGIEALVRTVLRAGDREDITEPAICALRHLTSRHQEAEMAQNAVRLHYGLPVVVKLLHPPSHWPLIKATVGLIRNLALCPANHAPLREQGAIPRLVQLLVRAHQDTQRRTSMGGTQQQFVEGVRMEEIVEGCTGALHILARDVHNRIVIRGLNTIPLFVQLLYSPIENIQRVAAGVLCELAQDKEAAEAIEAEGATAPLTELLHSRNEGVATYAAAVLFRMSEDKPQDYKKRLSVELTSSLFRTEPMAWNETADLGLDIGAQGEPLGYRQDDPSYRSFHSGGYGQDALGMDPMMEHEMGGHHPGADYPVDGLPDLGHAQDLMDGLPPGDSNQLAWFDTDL

SMILES | Ki [µM] | IC50 [µM]
O=C(c1ccc(O[C@H]2CCNC2)c(C2CCC(C(F)(F)F)CC2)c1)N1CCC(Oc2cc(F)cc(N3CCNCC3)c2)CC1 (stereo in doubt) [Compound 18, cis- and trans-(S)-(4-(3-fluoro-5-(piperazin-1-yl)phenoxy)piperidin-1-yl)(4-(pyrrolidin-3-yloxy)-3-(4-(trifluoromethyl)cyclohexyl)phenyl)methanone dihydrochloride] | ≤ 20 | ≤ 20
CC(C)(C)C1CCC(c2cc(C(=O)N3CCC(Oc4cc(F)cc(N5CCNCC5)c4)CC3)ccc2O[C@H]2CCNC2)CC1 (stereo in doubt) [Compound 19, cis- and trans-(S)-(3-(4-(tert-butyl)cyclohexyl)-4-(pyrrolidin-3-yloxy)phenyl)(4-(3-fluoro-5-(piperazin-1-yl)phenoxy)piperidin-1-yl)methanone dihydrochloride] | ≤ 5 | ≤ 5
CC(C)(C)C1CCC(c2cc(C(=O)N3CCC(Oc4cc(Cl)cc(N5CCNCC5)c4)CC3)ccc2O[C@H]2CCNC2)CC1 (stereo in doubt) [Compound 30, cis- and trans-(S)-(3-(4-(tert-butyl)cyclohexyl)-4-(pyrrolidin-3-yloxy)phenyl)(4-(3-chloro-5-(piperazin-1-yl)phenoxy)piperidin-1-yl)methanone dihydrochloride] | ≤ 5 | ≤ 5
CC(C)(C)C1CCC(c2cc(C(=O)N3CCC(Oc4cc(N5CCNCC5)cc(C(F)(F)F)c4)CC3)ccc2O[C@H]2CCNC2)CC1 (stereo in doubt) [Compound 31, cis- and trans-(S)-(3-(4-(tert-butyl)cyclohexyl)-4-(pyrrolidin-3-yloxy)phenyl)(4-(3-(piperazin-1-yl)-5-(trifluoromethyl)phenoxy)piperidin-1-yl)methanone dihydrochloride] | < 5 | ≤ 5
CC(C)(C)C1CCC(c2cc(C(=O)N3CCC(Oc4cc(C#N)cc(N5CCNCC5)c4)CC3)ccc2O[C@H]2CCNC2)CC1 (stereo in doubt) [Compound 32, cis- and trans-(S)-3-((1-(3-(4-(tert-butyl)cyclohexyl)-4-(pyrrolidin-3-yloxy)benzoyl)piperidin-4-yl)oxy)-5-(piperazin-1-yl)benzonitrile dihydrochloride] | ≤ 10 | ≤ 10
CC(C)(C)C1CCC(c2cc(C(=O)N3CCC(Oc4ccc(F)c(N5CCNCC5)c4)CC3)ccc2O[C@H]2CCNC2)CC1 (stereo in doubt) [Compound 33, cis- and trans-(S)-(3-(4-(tert-butyl)cyclohexyl)-4-(pyrrolidin-3-yloxy)phenyl)(4-(4-fluoro-3-(piperazin-1-yl)phenoxy)piperidin-1-yl)methanone dihydrochloride] | ≤ 10 | ≤ 10
CC(C)(C)C1CCC(c2cc(C(=O)N3CCC(Oc4cc(N5CCNCC5)ccc4F)CC3)ccc2O[C@H]2CCNC2)CC1 (stereo in doubt) [Compound 34, cis- and trans-(S)-(3-(4-(tert-butyl)cyclohexyl)-4-(pyrrolidin-3-yloxy)phenyl)(4-(2-fluoro-5-(piperazin-1-yl)phenoxy)piperidin-1-yl)methanone dihydrochloride] | ≤ 10 | ≤ 10
CC(C)(C)C1CCC(c2cc(C(=O)N3CCC(Oc4cc(N5CCNCC5)cc(F)c4F)CC3)ccc2O[C@H]2CCNC2)CC1 (stereo in doubt) [Compound 35, cis- and trans-(S)-(3-(4-(tert-butyl)cyclohexyl)-4-(pyrrolidin-3-yloxy)phenyl)(4-(2,3-difluoro-5-(piperazin-1-yl)phenoxy)piperidin-1-yl)methanone dihydrochloride] | ≤ 5 | ≤ 5
CC(C)(C)C1CCC(c2cc(C(=O)N3CCC(Oc4cc(N5CCNCC5)ccc4Cl)CC3)ccc2O[C@H]2CCNC2)CC1 (stereo in doubt) [Compound 36, cis- and trans-(S)-(3-(4-(tert-butyl)cyclohexyl)-4-(pyrrolidin-3-yloxy)phenyl)(4-(2-chloro-5-(piperazin-1-yl)phenoxy)piperidin-1-yl)methanone dihydrochloride] | ≤ 5 | ≤ 5
CC(C)(C)C1CCC(c2cc(C(=O)N3CCC(Oc4cc(N5CCNCC5)ccc4C#N)CC3)ccc2O[C@H]2CCNC2)CC1 (stereo in doubt) [Compound 37, cis- and trans-(S)-2-((1-(3-(4-(tert-butyl)cyclohexyl)-4-(pyrrolidin-3-yloxy)benzoyl)piperidin-4-yl)oxy)-4-(piperazin-1-yl)benzonitrile dihydrochloride] | ≤ 2 | ≤ 2
CC(C)(C)C1CCC(c2cc(C(=O)N3CCC(Oc4cccc(N5CCNCC5)c4)CC3)ccc2O[C@H]2CCNC2)CC1 (stereo in doubt) [Compound 38, cis and trans-(S)-(3-(4-(tert-butyl)cyclohexyl)-4-(pyrrolidin-3-yloxy)phenyl)(4-(3-(piperazin-1-yl)phenoxy)piperidin-1-yl)methanone dihydrochloride] | ≤ 20 | ≤ 20
COC(=O)c1ccc(N2CCNCC2)cc1OC1CCN(C(=O)c2ccc(O[C@H]3CCNC3)c(C3CCC(C(C)(C)C)CC3)c2)CC1 (stereo in doubt) [Compound 39, cis- and trans-methyl (S)-2-((1-(3-(4-(tert-butyl)cyclohexyl)-4-(pyrrolidin-3-yloxy)benzoyl)piperidin-4-yl)oxy)-4-(piperazin-1-yl)benzoate dihydrochloride] | 14 ± 0.87 | 17 ± 1.1
CC(C)(C)C1CCC(c2cc(C(=O)N3CCC(Oc4cc(N5CCNCC5)ccc4C(=O)O)CC3)ccc2O[C@H]2CCNC2)CC1 (stereo in doubt) [Compound 40, cis- and trans-(S)-2-((1-(3-(4-(tert-butyl)cyclohexyl)-4-(pyrrolidin-3-yloxy)benzoyl)piperidin-4-yl)oxy)-4-(piperazin-1-yl)benzoic acid dihydrochloride] | ~84 | ~100
CC(C)(C)C1CCC(c2cc(C(=O)N3CCC(Oc4cc(N5CCNCC5)ccc4C(N)=O)CC3)ccc2O[C@H]2CCNC2)CC1 (stereo in doubt) [Compound 41, cis- and trans-(S)-2-((1-(3-(4-(tert-butyl)cyclohexyl)-4-(pyrrolidin-3-yloxy)benzoyl)piperidin-4-yl)oxy)-4-(piperazin-1-yl)benzamide dihydrochloride] | ≤ 20 | ≤ 20
CNC(=O)c1ccc(N2CCNCC2)cc1OC1CCN(C(=O)c2ccc(O[C@H]3CCNC3)c(C3CCC(C(C)(C)C)CC3)c2)CC1 (stereo in doubt) [Compound 42, cis- and trans-(S)-2-((1-(3-(4-(tert-butyl)cyclohexyl)-4-(pyrrolidin-3-yloxy)benzoyl)piperidin-4-yl)oxy)-N-methyl-4-(piperazin-1-yl)benzamide dihydrochloride] | ≤ 50 | ≤ 50
CN(C)C(=O)c1ccc(N2CCNCC2)cc1OC1CCN(C(=O)c2ccc(O[C@H]3CCNC3)c(C3CCC(C(C)(C)C)CC3)c2)CC1 (stereo in doubt) [Compound 43, cis- and trans-(S)-2-((1-(3-(4-(tert-butyl)cyclohexyl)-4-(pyrrolidin-3-yloxy)benzoyl)piperidin-4-yl)oxy)-N,N-dimethyl-4-(piperazin-1-yl)benzamide dihydrochloride] | ~81 | ~100
O=C(c1ccc(O[C@H]2CCNC2)c(C2CCCCC2)c1)N1CCC(Oc2cc(F)cc(N3CCNCC3)c2)CC1 [Compound 1, (S)-(3-cyclohexyl-4-(pyrrolidin-3-yloxy)phenyl)(4-(3-fluoro-5-(piperazin-1-yl)phenoxy)piperidin-1-yl)methanone dihydrochloride] | ≤ 50 | ≤ 60
O=C(c1ccc(O[C@H]2CCNC2)c(C2CCCCC2)c1)N1CCC(Oc2cc(F)cc(N3CC4(CCNCC4)C3)c2)CC1 [Compound 2, (S)-(3-cyclohexyl-4-(pyrrolidin-3-yloxy)phenyl)(4-(3-fluoro-5-(2,7-diazaspiro[3.5]nonan-2-yl)phenoxy)piperidin-1-yl)methanone ditrifluoroacetic acid] | > 84 | > 100
O=C(c1ccc(O[C@H]2CCNC2)c(C2CCCCC2)c1)N1CCC(Oc2cc(F)cc(N3CCC4(CC3)CNC4)c2)CC1 [Compound 3, (S)-(3-cyclohexyl-4-(pyrrolidin-3-yloxy)phenyl)(4-(3-fluoro-5-(2,7-diazaspiro[3.5]nonan-7-yl)phenoxy)piperidin-1-yl)methanone ditrifluoroacetic acid] | > 84 | > 100
